Among the data in patent publication US20090062294A1, “HETEROARYL-SUBSTITUTED UREA MODULATORS OF FATTY ACID AMIDE HYDROLASE” (priority 2007, published 2009) are IC50 values, retold here.

For one assay, the target named is T1, FAAH (Homo sapiens, UniProt O00519).
T1 sequence (O00519 1-579): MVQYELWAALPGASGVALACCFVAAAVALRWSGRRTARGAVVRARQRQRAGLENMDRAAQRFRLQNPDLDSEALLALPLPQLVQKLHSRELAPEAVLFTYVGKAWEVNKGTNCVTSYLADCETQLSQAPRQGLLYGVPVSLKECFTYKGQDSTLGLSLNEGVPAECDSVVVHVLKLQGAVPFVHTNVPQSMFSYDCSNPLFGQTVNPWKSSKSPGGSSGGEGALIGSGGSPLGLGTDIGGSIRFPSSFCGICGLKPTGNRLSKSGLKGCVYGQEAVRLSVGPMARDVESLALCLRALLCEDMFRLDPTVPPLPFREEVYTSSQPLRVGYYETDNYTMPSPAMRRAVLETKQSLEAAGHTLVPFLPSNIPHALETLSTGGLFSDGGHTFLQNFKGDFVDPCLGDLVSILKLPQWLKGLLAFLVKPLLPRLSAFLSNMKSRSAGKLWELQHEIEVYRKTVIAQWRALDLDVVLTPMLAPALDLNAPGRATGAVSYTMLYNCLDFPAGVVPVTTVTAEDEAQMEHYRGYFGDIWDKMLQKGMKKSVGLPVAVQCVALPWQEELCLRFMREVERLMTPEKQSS
Put plainly: Assay Method 1: FAAH assay, 3H-anandamide hydrolysis in homogenate of T84 cells or SK-N-MC cells transfected with human FAAH. It is filed as biochemical. Particulars: average of results, > = solubility limit or highest concentration tested. As for the experimental part:
A. Transfection of Cells with Human FAAH
(§1) A 10-cm tissue culture dish with a confluent monolayer of SK—N-MC cells was split 2 days (d) prior to transfection. Using sterile technique, the media was removed and the cells were detached from the dish by the addition of trypsin. One fifth of the cells were then placed onto a new 10-cm dish. Cells were grown in a 37° C. incubator with 5% CO2 in Minimal Essential Media Eagle with 10% Fetal Bovine Serum. After 2 d, cells were approximately 80% confluent. These cells were removed from the dish with trypsin and pelleted in a clinical centrifuge. The pellet was re-suspended in 400 μL complete media and transferred to an electroporation cuvette with a 0.4 cm gap between the electrodes. Supercoiled human FAAH cDNA (1 μg) was added to the cells and mixed. The voltage for the electroporation was set at 0.25 kV, and the capacitance was set at 960 μF. After electroporation, the cells were diluted into complete media (10 mL) and plated onto four 10-cm dishes. Because of the variability in the efficiency of electroporation, four different concentrations of cells were plated. The ratios used were 1:20, 1:10, and 1:5, with the remainder of the cells being added to the fourth dish. The cells were allowed to recover for 24 h before adding the selection media (complete media with 600 μg/mL G418). After 10 d, dishes were analyzed for surviving colonies of cells. Dishes with well-isolated colonies were used. Cells from individual colonies were isolated and tested.
(§2) T84 frozen cell pellets or transfected SK—N-MC cells (contents of 1×15 cm culture dishes) were homogenized in 50 mL of FAAH assay buffer (125 mM Tris, 1 mM EDTA, 0.2% Glycerol, 0.02% Triton X-100, 0.4 mM Hepes, pH 9). The assay mixture consisted of 50 μL of the cell homogenate, 10 μL of the test compound, and 40 μL of anandamide [1-^3H-ethanolamine] (^3H-AEA, Perkin-Elmer, 10.3 Ci/mmol), which was added last, for a final tracer concentration of 80 nM. The reaction mixture was incubated at rt for 1 h. During the incubation, 96-well Multiscreen filter plates (catalog number MAFCNOB50; Millipore, Bedford, Mass., USA) were loaded with 25 μL of activated charcoal (Multiscreen column loader, catalog number MACL09625, Millipore) and washed once with 100 μL of MeOH. Also during the incubation, 96-well DYNEX MicroLite plates (catalog number NL510410) were loaded with 100 μL of MicroScint40 (catalog number 6013641, Packard Bioscience, Meriden, Conn., USA). After the 1 h incubation, 60 μL of the reaction mixture were transferred to the charcoal plates, which were then assembled on top of the DYNEX plates using Centrifuge Alignment Frames (catalog number MACF09604, Millipore). The unbound labeled ethanolamine was centrifuged through to the bottom plate (5 min at 2000 rpm), which was preloaded with the scintillant, as described above. The plates were sealed and left at rt for 1 h before counting on a Hewlett Packard TopCount.
(§3) Compounds were tested in free base, hydrochloride salt, and/or trifluoroacetic acid salt forms.

In the next assay the target is T2, rat FAAH (Rattus norvegicus, UniProt P97612).
T2 sequence (P97612 1-579): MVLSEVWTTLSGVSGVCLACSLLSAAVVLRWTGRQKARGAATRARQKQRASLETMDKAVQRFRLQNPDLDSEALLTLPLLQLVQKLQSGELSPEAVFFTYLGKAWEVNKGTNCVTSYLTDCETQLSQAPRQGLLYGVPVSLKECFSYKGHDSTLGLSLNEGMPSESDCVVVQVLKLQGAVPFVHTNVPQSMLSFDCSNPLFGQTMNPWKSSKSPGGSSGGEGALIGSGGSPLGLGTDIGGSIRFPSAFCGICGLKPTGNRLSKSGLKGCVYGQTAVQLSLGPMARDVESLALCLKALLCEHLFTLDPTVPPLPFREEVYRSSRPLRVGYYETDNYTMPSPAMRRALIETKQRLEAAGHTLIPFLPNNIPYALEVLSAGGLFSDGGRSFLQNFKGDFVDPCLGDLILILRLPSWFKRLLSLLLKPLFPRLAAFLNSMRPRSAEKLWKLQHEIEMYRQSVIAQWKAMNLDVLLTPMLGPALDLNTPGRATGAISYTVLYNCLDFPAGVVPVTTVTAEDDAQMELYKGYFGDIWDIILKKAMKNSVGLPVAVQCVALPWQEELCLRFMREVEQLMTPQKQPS
Put plainly: Assay Method 2: FAAH assay, 3H-anandamide hydrolysis in homogenate of SK-N-MC cells transfected with rat FAAH. The assay is classed as biochemical. Particulars: average of results, > = solubility limit or highest concentration tested. As for the experimental part:
A. Transfection of Cells with Rat FAAH
as §1, with “rat” for “human”
as §2, §3

Counter-ions that a name gives are not always drawn.

By IC50 is commonly meant the concentration needed to halve the response being measured. Turning to `O=C(Nc1noc2ccccc12)N1CCN(Cc2cccc(C#Cc3ccccc3Br)c2)CC1` [Example 67, N-1,2-Benzisoxazol-3-yl-4-{3-[(2-bromophenyl)-ethynyl]benzyl}-piperazine-1-carboxamide], the IC50 is 6 nM against FAAH and 52 nM against rat FAAH.

For the compound `O=C(Nc1cnccn1)N1CCN(Cc2ccc(Br)cc2)CC1` [Example 212, 4-(4-Bromobenzyl)-N-pyrazin-2-ylpiperazine-1-carboxamide], the results for the IC50 against FAAH and against rat FAAH were 500 nM and 8000 nM, respectively.

Regarding `O=C(Nc1nnn[nH]1)N1CCN(Cc2cccc(Oc3ccc(Cl)c(Cl)c3)c2)CC1` [Example 174, 4-[3-(3,4-Dichlorophenoxy)benzyl]-N-1H-tetrazol-5-ylpiperazine-1-carboxamide], the IC50 amounted to 100 nM against FAAH and 30 nM at rat FAAH.

With `O=C(Nc1nn[nH]n1)N1CCN(Cc2ccc(Br)c(F)c2)CC1` [Example 168, 4-(4-Bromo-3-fluorobenzyl)-N-1H-tetrazol-5-ylpiperazine-1-carboxamide], the IC50 at FAAH is 1200 nM; against rat FAAH it was 480 nM.

Take `O=C(Nc1noc2ccccc12)N1CCN(Cc2cccc(Oc3ccccc3)c2)CC1` [Example 110, N-1,2-Benzisoxazol-3-yl-4-(3-phenoxybenzyl)piperazine-1-carboxamide]: the IC50 was 45 nM on FAAH and 42 nM at rat FAAH.

For `O=C(Nc1cnccn1)N1CCN(Cc2cccc(Oc3ccc(S(=O)(=O)C(F)(F)F)cc3)c2)CC1` [Example 226, N-Pyrazin-2-yl-4-(3-{4-[(trifluoromethyl)sulfonyl]phenoxy}benzyl)-piperazine-1-carboxamide], the results for the IC50 against FAAH and at rat FAAH were 6 nM and 40 nM, respectively.

In the case of `O=C(Nc1ccc2nn[nH]c2c1)N1CCN(Cc2ccc3c(c2)OC(F)(F)O3)CC1` [Example 6, 4-(2,2-Difluoro-benzo[1,3]dioxol-5-ylmethyl)-piperazine-1-carboxylic acid (3H-benzotriazol-5-yl)-amide trifluoroacetic acid salt], the IC50 against FAAH was determined as 308 nM; against rat FAAH, 352 nM.

For `O=C(Nc1noc2ccccc12)N1CCN(Cc2cccc(Oc3ccc(C(F)(F)F)c(Cl)c3)c2)CC1` [Example 204, 4-[3-(3-Chloro-4-trifluoromethyl-phenoxy)-benzyl]-piperazine-1-carboxylic acid benzo[d]isoxazol-3-ylamide trifluoroacetic acid salt], the IC50 on FAAH was 14 nM; against rat FAAH, 32 nM.

As to `O=C(Nc1cnccn1)N1CCN(Cc2cccc(Oc3ccc(OC(F)(F)F)cc3)c2)CC1` [Example 233, N-Pyrazin-2-yl-4-{3-[4-(trifluoromethoxy)phenoxy]benzyl}piperazine-1-carboxamide], the IC50 against FAAH worked out at 10 nM; against rat FAAH, 140 nM.

For the compound `O=C(Nc1nn[nH]n1)N1CCN(Cc2cccc(OCc3ccccc3)c2)CC1` [Example 179, 4-(3-Benzyloxy-benzyl)-piperazine-1-carboxylic acid (2H-tetrazol-5-yl)-amide], the IC50 on FAAH amounted to 1600 nM; against rat FAAH it was 1200 nM.

Turning to `CS(=O)(=O)c1ccc(CN2CCN(C(=O)Nc3noc4ccccc34)CC2)cc1` [Example 102, N-1,2-Benzisoxazol-3-yl-4-[4-(methylsulfonyl)benzyl]piperazine-1-carboxamide], the IC50 at FAAH and against rat FAAH was more than 10000 nM in each case.

`O=C(Nc1ccc(Cl)nn1)N1CCN(Cc2ccc(F)c(Oc3ccccc3)c2)CC1` [Example 45, 4-(4-Fluoro-3-phenoxy-benzyl)-piperazine-1-carboxylic acid (6-chloro-pyridazin-3-yl)-amide trifluoroacetic acid salt]: the IC50 against FAAH turned out to be 1500 nM; against rat FAAH it was 410 nM.

For `CCn1nccc1NC(=O)N1CCN(Cc2cccc(Oc3ccc(Cl)cc3)c2)CC1` [Example 193, 4-[3-(4-Chloro-phenoxy)-benzyl]-piperazine-1-carboxylic acid (2-ethyl-2H-pyrazol-3-yl)-amide trifluoroacetic acid salt], the IC50 amounted to 327 nM at FAAH and 6000 nM against rat FAAH.

With `COc1ccccc1C#Cc1cccc(CN2CCN(C(=O)Nc3noc4ccccc34)CC2)c1` [Example 65, N-1,2-Benzisoxazol-3-yl-4-{3-[(2-methoxyphenyl)-ethynyl]-benzyl}-piperazine-1-carboxamide], the IC50 was determined as 395 nM at FAAH and 300 nM against rat FAAH.

`O=C(Nc1nn[nH]n1)N1CCN(Cc2ccc(Br)cc2)CC1` [Example 177, 4-(4-Bromo-benzyl)-piperazine-1-carboxylic acid (2H-tetrazol-5-yl)-amide]: the IC50 at FAAH was 5000 nM; against rat FAAH, 1700 nM.

With `O=C(Nc1cnccn1)N1CCN(Cc2ccc3ccccc3c2)CC1` [Example 213, 4-(Naphthalen-2-ylmethyl)-N-pyrazin-2-ylpiperazine-1-carboxamide], the figures for the IC50 against FAAH and on rat FAAH were 100 nM and 320 nM, respectively.

With `O=C(Nc1noc2ccccc12)N1CCN(Cc2cccc(Oc3cccc(OC(F)(F)F)c3)c2)CC1` [Example 29, 4-[3-(3-Trifluoromethoxy-phenoxy)-benzyl]-piperazine-1-carboxylic acid benzo[d]isoxazol-3-ylamide trifluoroacetic acid salt], the IC50 against FAAH worked out at 16 nM; at rat FAAH, 23 nM.
